Measurements taken from BindingDB's records for doi:10.1021/jm9800144 (Smithkline Beecham, 1998).

Molecular target: V-ATPase (Gallus gallus)
Experiment: Compound was tested for inhibition of V-ATPase from Chicken osteoclasts (cOc)

Which IC50 does the source give for `COC(=O)/C(=C\C=C\c1cc2cc(Cl)c(Cl)cc2[nH]1)OC` [(2E,4E)-5-(5,6-Dichloro-1H-indol-2-yl)-2-methoxy-penta-2,4-dienoic acid methyl ester] here?
The IC50 was 1900 nM.
